Experimental data: PubChem BioAssay (NCI)
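Where inhibition never reached the appropriate level, the endpoint shown equals the highest concentration tested. Otherwise, values were interpolated linearly from a five-concentration, 48-hour dose response in 96-well plates. At the GI50, growth is halved. TGI denotes the concentration required for complete inhibition of growth.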

Assays:
Test in all cases: DTP human tumour cell line panel, 48 h
[1] = test system: ACHN renal
[2] = test system: SF-268 CNS
[3] = test system: SW-620 colon
[4] = test system: SF-539 CNS
[5] = test system: MCF7 breast
[6] = test system: CCRF-CEM leukemia
[7] = test system: PC-3 prostate
[8] = test system: NCI-H460 lung
[9] = test system: M14 melanoma
[10] = test system: HOP-92 NSCLC
[11] = test system: KM12 colon
[12] = test system: IGROV1 ovarian
[13] = test system: OVCAR-8 ovarian
[14] = test system: SK-MEL-5 melanoma
[15] = test system: OVCAR-3 ovarian
[16] = test system: SNB-19 CNS
[17] = test system: HS 578T breast
[18] = test system: UACC-62 melanoma
[19] = test system: MOLT-4 leukemia
[20] = test system: NCI-H522 lung
[21] = test system: MALME-3M melanoma
[22] = test system: COLO 205 colon
[23] = test system: SNB-75 CNS
[24] = test system: EKVX NSCLC
[25] = test system: RXF 393 renal
[26] = test system: NCI/ADR-RES ovarian
[27] = test system: NCI-H23 lung
[28] = test system: UACC-257 melanoma
[29] = test system: U251 CNS
[30] = test system: NCI-H226 lung
[31] = test system: HT29 colon
[32] = test system: SN12C renal
[33] = test system: HOP-62 NSCLC
[34] = test system: MDA-MB-435
[35] = test system: OVCAR-5 ovarian
[36] = test system: HCC-2998 colon
[37] = test system: T-47D breast
[38] = test system: HCT-116 colon
[39] = test system: SF-295 CNS
[40] = test system: BT-549 breast
[41] = test system: DU-145 prostate
[42] = test system: SK-MEL-2 melanoma
[43] = test system: OVCAR-4 ovarian
[44] = test system: HL-60(TB) leukemia
[45] = test system: LOX IMVI melanoma
[46] = test system: UO-31 renal
[47] = test system: HCT-15 colon
[48] = test system: RPMI-8226 leukemia
[49] = test system: 786-0 renal
[50] = test system: A549 NSCLC
[51] = test system: TK-10 renal
[52] = test system: MDA-MB-231 breast
[53] = test system: SK-OV-3 ovarian
[54] = test system: A498 renal
[55] = test system: K-562 leukemia
[56] = test system: CAKI-1 renal
[57] = test system: SK-MEL-28 melanoma

## COc1ccc(Nc2ncc(-c3ccccc3)o2)cc1OC
[1]
  GI50: 8.59 µM
  TGI: > 25 µM
[2]
  GI50: > 17.2 µM
  TGI: > 25 µM
[3]
  GI50: 14.9 µM
  TGI: > 25 µM
[4]
  GI50: 5.34 µM
  TGI: > 25 µM
[5]
  GI50: > 25 µM
  TGI: > 25 µM
[6]
  GI50: 13.9 µM
  TGI: > 25 µM
[7]
  GI50: 17.6 µM
  TGI: > 25 µM
[8]
  GI50: 13.4 µM
  TGI: > 25 µM
[9]
  GI50: > 22.9 µM
  TGI: > 25 µM
[10]
  GI50: 6.04 µM
  TGI: > 25 µM
[11]
  GI50: 4.35 µM
  TGI: > 25 µM
[12]
  GI50: > 17.1 µM
  TGI: > 25 µM
[13]
  GI50: 16.2 µM
  TGI: > 25 µM
[14]
  GI50: > 25 µM
  TGI: > 25 µM
[15]
  GI50: > 15.6 µM
  TGI: > 25 µM
[16]
  GI50: > 25 µM
  TGI: > 25 µM
[17]
  GI50: 8.43 µM
  TGI: > 25 µM
[18]
  GI50: > 22.3 µM
  TGI: > 25 µM
[19]
  GI50: 13.6 µM
  TGI: > 25 µM
[20]
  GI50: 9.33 µM
  TGI: > 25 µM
[21]
  GI50: > 25 µM
  TGI: > 25 µM
[22]
  GI50: 18.4 µM
  TGI: > 25 µM
[23]
  GI50: 5.09 µM
  TGI: > 25 µM
[24]
  GI50: > 25 µM
  TGI: > 25 µM
[25]
  GI50: 6.03 µM
  TGI: > 19.5 µM
[26]
  GI50: > 22 µM
  TGI: > 25 µM
[27]
  GI50: > 25 µM
  TGI: > 25 µM
[28]
  GI50: > 25 µM
  TGI: > 25 µM
[29]
  GI50: 11.2 µM
  TGI: > 25 µM
[30]
  GI50: > 20.6 µM
  TGI: > 25 µM
[31]
  GI50: 16.3 µM
  TGI: > 25 µM
[32]
  GI50: > 21.6 µM
  TGI: > 25 µM
[33]
  GI50: > 25 µM
  TGI: > 25 µM
[34]
  GI50: > 19.5 µM
  TGI: > 25 µM
[35]
  GI50: > 25 µM
  TGI: > 25 µM
[36]
  GI50: > 25 µM
  TGI: > 25 µM
[37]
  GI50: 24.7 µM
  TGI: > 25 µM
[38]
  GI50: 9.37 µM
  TGI: > 25 µM
[39]
  GI50: > 24.2 µM
  TGI: > 25 µM
[40]
  GI50: 18.6 µM
  TGI: > 25 µM
[41]
  GI50: 10.7 µM
  TGI: > 25 µM
[42]
  GI50: 18.4 µM
  TGI: > 25 µM
[43]
  GI50: > 22.2 µM
  TGI: > 25 µM
[44]
  GI50: 10.9 µM
  TGI: > 19 µM
[45]
  GI50: 11.6 µM
  TGI: > 25 µM
[46]
  GI50: 9.29 µM
  TGI: > 25 µM
[47]
  GI50: 10.6 µM
  TGI: > 25 µM
[48]
  GI50: > 24 µM
  TGI: > 25 µM
[49]
  GI50: 11.6 µM
  TGI: > 25 µM
[50]
  GI50: 15.2 µM
  TGI: > 25 µM
[51]
  GI50: 6.07 µM
  TGI: > 25 µM
[52]
  GI50: > 25 µM
  TGI: > 25 µM
[53]
  GI50: 12.7 µM
  TGI: > 25 µM
[54]
  GI50: 7.77 µM
  TGI: > 25 µM
[55]
  GI50: 8.3 µM
  TGI: > 25 µM
[56]
  GI50: 7.02 µM
  TGI: > 25 µM
[57]
  GI50: > 25 µM
  TGI: > 25 µM
